# Laboratory results as given in publication PMC10916352, “Safety Evaluation of a Prototypical Diazirine-Based Covalent Crosslinker and Molecular Adhesive” (International Journal of Toxicology, 2023).
# Structures can show the parent of a compound that is named as a salt.
# What was measured:
# [1] = test system: Salmonella typhimurium TA98; test: Bacterial reverse mutation test (Ames), strain TA98; assay type: cell-based; details: positive control tested singular
# Experimental: (§1) The reverse mutation test was performed to determine the potential of BondLynx and/or its metabolites to induce reverse mutations at the histidine locus of Salmonella typhimurium.[26],[27] The test employs strains of Salmonella typhimurium carrying mutations in the genes involved in histidine production, such that they are only able to grow in histidine supplemented culture media. Upon exposure to mutagenic materials, these mutations may be reversed, thereby restoring the ability to grow in histidine-free media. When grown in the presence of the test compound on media with a small amount of histidine, tester strains grow briefly to allow the opportunity for mutation, followed by proliferation of revertant colonies upon depletion of the provided histidine. Thus, the number of revertant colonies following incubation is indicative of the ability of the test compound to induce mutations.
# (§2) Tests were performed on two strains of the bacteria (TA98 and TA100) in the absence and presence of an exogenous mammalian metabolic activation system (5% v/v S9). Positive controls and BondLynx were suspended in dimethyl sulfoxide (DMSO) for testing, and DMSO served as the vehicle control. Positive controls consisted of 2-nitrofluorene (10 μg/plate) for the TA98 strain without S9, methyl mesylate (650 μg/plate) for the TA100 strain without S9, and 2-aminoanthracene for both strains with S9 (1 μg/plate for TA98 and 5 μg/plate for TA100). Eight concentrations of BondLynx (1.7, 5.4, 17, 52, 164, 512, 1600 and 5000 μg/plate) were tested in triplicate. The vehicle control was tested in triplicate and the positive controls were tested singular.
# (§3) Test solutions were prepared by pre-incubating .1 mL fresh bacterial culture (10^9 cells/mL), .1 mL of a BondLynx dilution or control solution, and .5 mL of S9 mix or .1 M phosphate buffer for 30 min before adding to 3 mL of molten (45 ± 2°C) top agar. After mixing in a vortex, agar solutions were poured onto selective agar plates. Upon solidification, the prepared plates were inverted and incubated at 37.0 ± 1.0°C for 48 ± 4 h. Following incubation, revertant colonies were counted with a Sorcerer Colony Counter. The condition of the bacterial background lawn was evaluated macroscopically and/or microscopically using a dissecting microscope when considered necessary.
# [2] = test system: Salmonella typhimurium TA100; test: Bacterial reverse mutation test (Ames), strain TA100; assay type: cell-based; details: positive control tested singular
# Experimental: as §1, §2, §3
# [3] = test system: EPISKIN Small Model (human epidermis model); test: In vitro skin irritation test, MTT viability; assay type: cell-based; details: 15 min exposure, 42 h post-incubation
# Experimental: Tests were performed in triplicate. […] Following exposure, samples were rinsed with phosphate buffered saline until no test item remain, dried carefully, and placed in a new 2 mL well with pre-warmed Maintenance Medium to incubate for 42 h. After incubation, cell culture inserts were dried carefully, transferred into a 12-well plate prefilled with 2 mL MTT in phosphate buffered saline (.3 mg/mL), and incubated for 3 h. Tissue samples were then dried, and a biopsy punch was taken. The epidermis was separated from the collagen matrix, and both were extracted with 500 μL isopropanol and stored for 70 h refrigerated. The amount of extracted formazan was measured in duplicate for each sample by the OD570.
# [4] = test system: Balb/c 3T3 fibroblasts (clone 31); test: 3T3 Neutral Red uptake cytotoxicity and phototoxicity assay; details: for Corrected Mean OD540: 8 wells; for Photo Irritation Factor (PIF): non-irradiated IC50 divided by irradiated IC50
# Experimental: (§4) The 3T3 Neutral Red uptake assay was used to evaluate the phototoxicity of BondLynx. The NRU assay makes use of Neutral Red dye, a weak cationic dye that penetrates the cell membrane by non-ionic passive diffusion and accumulates in lysosomes. Cytotoxicity of the test material is evaluated by measuring the OD540 to assess the uptake of Neutral Red dye.[28],[29] […] By measuring cytotoxicity in the absence vs presence of UV and visible light, the phototoxicity of the test material can be determined.[30],[31]
# (§5) Cells were routinely trypsinized and passaged, at least once weekly, with a split ratio 1:3 to 1:4 to achieve a near confluent culture.
# (§6) Stock solutions of both controls were freshly prepared on the day of testing. The vehicle control was 1% DMSO in EBSS for the positive control, EBSS for the negative control, and .5% ethanol in EBSS for BondLynx. BondLynx was dissolved in ethanol for testing. […] All controls and BondLynx were handled in the dark and tested in 8-fold.
# (§7) In preparation for testing, cultures of 3T3 fibroblasts were trypsinized and resuspended in culture medium. […] A total of six plates were prepared in this manner – two each for the positive control, the negative control, and BondLynx. Following incubation, the cell culture medium was removed, and the wells washed with DPBS (Dulbecco’s phosphate-buffered saline). A 200 μL aliquot of each dilution of the test compound (BondLynx or a control) was added the first eight columns, and the appropriate vehicle control was added to the last four columns. All plates were incubated an additional 60 min before irradiating one plate for each test compound (+Irr) in a solar simulator with a WG320 nm filter for 22 min (equivalent to 5 J/cm^2 UV-A), while the second plate for each test compound (–Irr) was kept in the dark at room temperature. Subsequently, the test solutions were removed from the plates, and the cells were washed once with DPBS and suspended in 200 μL of supplemented DMEM to incubate for an additional 20-24 h.
# (§8) Immediately following incubation, the confluency of each plate was visually assessed, and the culture medium was replaced with 100 μL of Neutral Red dye (50 μg/mL). The plates were incubated another 3.5 h before removing the dye, washing with 150 μL of DPBS, and shaking for 20-40 min in 150 μL Neutral Red destain solution (ethanol:acetic acid:distilled water, 50:1:49). The optical density at 540 nm was measured for each well and corrected by subtracting the appropriate blank.
# [5] = as above; details: mouse, Viability (%)
# Experimental: as §4, §5, §6, §7, §8
structure (smiles),measurement,setting,value
"Nc1ccc2cc3ccccc3cc2c1 [2-aminoanthracene, reference compound]",Revertant Colonies (With S9),"[1]; TA98, with S9, 1 μg/plate",657
same,Revertant Colonies (With S9),"[2]; TA100, with S9, 5 μg/plate",363
"O=[N+]([O-])c1ccc2c(c1)Cc1ccccc1-2 [2-nitrofluorene, reference compound]",Revertant Colonies (Without S9),"[1]; TA98, without S9, 10 μg/plate",1962
"COS(C)(=O)=O [Methyl mesylate, methyl mesylate, reference compound]",Revertant Colonies (Without S9),"[2]; TA100, without S9, 650 μg/plate",646
"CCCCCCCCCCCCOS(=O)(=O)[O-].[Na+] [SDS, sodium dodecyl sulphate]",Mean ± SD (OD570 corrected),[3],.039 ± .005
same,Cell Viability (%),[3]; relative to phosphate buffered saline,4.0%
same,Viability (%),"[4]; +Irr, 0.1 μg/mL",100.0%
same,Corrected Mean OD540,"[4]; +Irr, 0.1 μg/mL",1.17
same,Viability (%),"[4]; +Irr, 0.316 μg/mL",99.1%
same,Corrected Mean OD540,"[4]; +Irr, 0.316 μg/mL",1.16
same,Viability (%),"[4]; +Irr, 1 μg/mL",101.7%
same,Corrected Mean OD540,"[4]; +Irr, 1 μg/mL",1.19
same,Viability (%),"[4]; +Irr, 3.16 μg/mL",100.0%
same,Corrected Mean OD540,"[4]; +Irr, 3.16 μg/mL",1.17
same,Viability (%),"[4]; +Irr, 10 μg/mL",95.7%
same,Corrected Mean OD540,"[4]; +Irr, 10 μg/mL",1.12
same,Viability (%),"[4]; +Irr, 31.6 μg/mL",18.8%
same,Corrected Mean OD540,"[4]; +Irr, 31.6 μg/mL",0.22
same,Viability (%),"[4]; +Irr, 100 μg/mL",0.6%
same,Corrected Mean OD540,"[4]; +Irr, 100 μg/mL",0.007
same,Viability (%),"[4]; +Irr, 316 μg/mL",0.5%
same,Corrected Mean OD540,"[4]; +Irr, 316 μg/mL",0.006
same,"IC50 (50% inhibition of Neutral Red uptake), presence of irradiation","[4]; +Irr, 5 J/cm^2 UV-A",21.65 µg/mL
same,Photo Irritation Factor (PIF),[4],1.14
same,"IC50 (50% inhibition of Neutral Red uptake), absence of irradiation",[4]; –Irr,27.4 µg/mL
same,Viability (%),"[4]; –Irr, 0.1 μg/mL",102.0%
same,Corrected Mean OD540,"[4]; –Irr, 0.1 μg/mL",1.25
same,Viability (%),"[4]; –Irr, 0.316 μg/mL",99.6%
same,Corrected Mean OD540,"[4]; –Irr, 0.316 μg/mL",1.22
same,Viability (%),"[4]; –Irr, 1 μg/mL",101.2%
same,Corrected Mean OD540,"[4]; –Irr, 1 μg/mL",1.24
same,Viability (%),"[4]; –Irr, 3.16 μg/mL",101.2%
same,Corrected Mean OD540,"[4]; –Irr, 3.16 μg/mL",1.24
same,Viability (%),"[4]; –Irr, 10 μg/mL",98.8%
same,Corrected Mean OD540,"[4]; –Irr, 10 μg/mL",1.21
same,Viability (%),"[4]; –Irr, 31.6 μg/mL",26.1%
same,Corrected Mean OD540,"[4]; –Irr, 31.6 μg/mL",0.32
same,Viability (%),"[4]; –Irr, 100 μg/mL",0.2%
same,Corrected Mean OD540,"[4]; –Irr, 100 μg/mL",0.003
same,Viability (%),"[4]; –Irr, 316 μg/mL",0.04%
same,Corrected Mean OD540,"[4]; –Irr, 316 μg/mL",0.0005
c1ccc2cc3ccccc3cc2c1 [anthracene],"viability at 82 min, 0.01 μg/mL",[5]; +Irr,98.1%
same,"viability at 82 min, 0.0316 μg/mL",[5]; +Irr,60.3%
same,"viability at 82 min, 0.1 μg/mL",[5]; +Irr,3.9%
same,"viability at 82 min, 0.316 μg/mL",[5]; +Irr,4.1%
same,"viability at 82 min, 1 μg/mL",[5]; +Irr,4.2%
same,"viability at 82 min, 3.16 μg/mL",[5]; +Irr,4.2%
same,"viability at 82 min, 10 μg/mL",[5]; +Irr,3.3%
same,"viability at 82 min, 31.6 μg/mL",[5]; +Irr,8.01%
same,"viability at 82 min, 0.01 μg/mL",[5]; –Irr,103%
same,"viability at 82 min, 0.0316 μg/mL",[5]; –Irr,102%
same,"viability at 82 min, 0.1 μg/mL",[5]; –Irr,102%
same,"viability at 82 min, 0.316 μg/mL",[5]; –Irr,101%
same,"viability at 82 min, 1 μg/mL",[5]; –Irr,100%
same,"viability at 82 min, 3.16 μg/mL",[5]; –Irr,101%
same,"viability at 82 min, 10 μg/mL",[5]; –Irr,101%
same,"viability at 82 min, 31.6 μg/mL",[5]; –Irr,103%
same,Corrected Mean OD540,"[4]; +Irr, 0.01 μg/mL",1.09
same,Corrected Mean OD540,"[4]; +Irr, 0.0316 μg/mL",0.67
same,Corrected Mean OD540,"[4]; +Irr, 0.1 μg/mL",0.043
same,Corrected Mean OD540,"[4]; +Irr, 0.316 μg/mL",0.046
same,Corrected Mean OD540,"[4]; +Irr, 1 μg/mL",0.047
same,Corrected Mean OD540,"[4]; +Irr, 3.16 μg/mL",0.047
same,Corrected Mean OD540,"[4]; +Irr, 10 μg/mL",0.037
same,Corrected Mean OD540,"[4]; +Irr, 31.6 μg/mL",0.089
same,IC50,"[4]; Mus musculus, BALB/c3T3, light or radiation study, read-out: IC50 (50% inhibition of Neutral Red uptake), presence of irradiation",0.03 µg/mL
same,Photo Irritation Factor (PIF),[4],> 31.6
same,"IC50 (50% inhibition of Neutral Red uptake), absence of irradiation",[4]; –Irr,no IC50
same,Corrected Mean OD540,"[4]; –Irr, 0.01 μg/mL",1.15
same,Corrected Mean OD540,"[4]; –Irr, 0.0316 μg/mL",1.14
same,Corrected Mean OD540,"[4]; –Irr, 0.1 μg/mL",1.14
same,Corrected Mean OD540,"[4]; –Irr, 0.316 μg/mL",1.13
same,Corrected Mean OD540,"[4]; –Irr, 1 μg/mL",1.12
same,Corrected Mean OD540,"[4]; –Irr, 3.16 μg/mL",1.13
same,Corrected Mean OD540,"[4]; –Irr, 10 μg/mL",1.13
same,Corrected Mean OD540,"[4]; –Irr, 31.6 μg/mL",1.15
